The structures appear in SMILES notation.

Consider `COC(=O)C#CC(=O)c1ccc(F)cc1`, for which the melting point was 62 to 63 °C.

For the compound `CC(C)C1COCc2nc3c(N)nc4c(c3n21)CCCC4` (configuration not stated), the melting point was 158 to 160 °C.

Compound `Cc1ccc(P(C)(C)=O)cc1` gave a melting point of 90 to 92 °C.

In the case of `CC(C)OC(=O)C(C(N)=O)=C1SCS1`, the melting point lay in the range of 128 to 129 °C.

Compound `COC(=O)C1OC(c2ccccc2)OCC1(C)C` (configuration not stated) showed a melting point of 86.5 to 88 °C.

The compound `N#Cc1cc(Cl)ccc1N1CCN(Cc2cn3cc(Cl)ccc3n2)CC1` returned a melting point of 191 to 192 °C.

Compound `CC(C)COC[C@H](CC(C)C)NC(=O)[C@H]1O[C@@H]1C(=O)OC(C)(C)C` yielded a melting point of 73.5 to 74.5 °C.

`Cc1onc(-c2ccccc2)c1C(=O)N(CCN(C)C)c1ccccc1` came in with a melting point of 88 to 89 °C.

Compound `CC(C)(C)OC(=O)Nc1cc(CC#N)c(I)cc1[N+](=O)[O-]` came in with a melting point of 124 to 126 °C.

In the case of `CC(C)(C)C(O)C(CSc1ccc(Cl)cc1)n1cncn1` (configuration not stated), the melting point came to 84 °C.

`N=c1[nH]ccn1Cc1ccc(Cl)nc1` gave a melting point of 188 °C.

For the compound `CC(C)COC(=O)Sc1ccc(-c2ccc(C(CCl)NC(=O)c3c(F)cccc3F)cc2)cc1` (racemic), the melting point was in the range of 171 to 173 °C.

`O=Cc1c(-c2ccc(F)cc2)n(CCF)c(=O)c2ccccc12` displayed a melting point of 132 to 134 °C.

`COc1ccc(/C=C/S(=O)(=O)CS(=O)(=O)/C=C/c2ccc(OC)c(O)c2)cc1N` displayed a melting point of 148 to 150 °C.

`CCC(=O)NC1C=CC(CO)C1` (configuration not stated) displayed a melting point of 67 to 68 °C.

In turn, `CC(C#N)c1ccc(O)c(N)c1` (configuration not stated) displayed a melting point of 110 to 112 °C.

In turn, `O=C(Nc1ccccc1)N1CC2CC(CN(Cc3ccc(Cl)cc3)C2)C1` had a melting point of 187 °C.

`Nc1cc(=O)n(Cc2ccc(OC(F)(F)F)cc2)[nH]1` registered a melting point of 99 °C.

Compound `CC(C)C(=O)N[C@H]1CC[C@H](CCN2CCN(c3nccc4c3CCO4)CC2)CC1` had a melting point of 219 °C.

For `O=[N+]([O-])c1ccc(SCCn2cnnc2)cc1`, the melting point is 162 to 165 °C.

With `O=C1OC(O)c2c(Cl)cccc21` (configuration not stated), the melting point was 120 to 122 °C.

Regarding `CCOC(=O)c1nc(N)sc1-c1ccccn1`, the melting point lay within 186 to 187 °C.

`COC(=O)CC(C)NC(=O)c1ccc(N2CCN(c3ccncc3)CC2)cc1` (configuration not stated) displayed a melting point of 130 to 132 °C.

Compound `O=C(N[C@@H](CNC(=O)c1ccc(C2CC2C(=O)NC2=NCCCN2)s1)C(=O)O)OCc1ccccc1` (some centres not stated) displayed a melting point of 98 °C.

In turn, `ClCCOc1ccc(/C=C/c2nc3ccccc3o2)cc1` had a melting point of 88 to 90 °C.

With `CC(C)c1ccc(-c2ccc(/C=C/C(=O)O)s2)cc1`, the melting point was 216 to 219 °C.

`Cc1cccc(-c2n[nH]cc2-c2ccc(F)c(-c3c[nH]c(CCO)n3)c2)n1`: the melting point was 219 to 220 °C.

With `CC(=O)NC[C@H]1CN(c2ccc(N3CCC(n4nnnc4CS(C)(=O)=O)CC3)c(F)c2)C(=O)O1`, the melting point was 192 °C.

With `O=C(Cn1nnc2ccccc21)Nc1ccc(-n2nc(C3CC3)cc2C2CC2)cc1`, the melting point lay within 216 to 220 °C.

Consider `COC(=O)c1[nH]c(C)c(C)c1O`, for which the melting point was in the range of 170 to 172 °C.

In the case of `CCOC(=O)c1cc(=O)c2c(OCC(C)(O)Oc3ccc(Br)cc3)cccc2o1` (configuration not stated), the melting point was 79 to 80 °C.

`Brc1ccc2cc(Cc3cc4ccc(Br)cc4o3)oc2c1` yielded a melting point of 146 to 147 °C.

For `N#CC1OC(=O)c2cccc(F)c21` (configuration not stated), the melting point fell in the range of 93 to 96 °C.

In turn, `CON1CCC(CC2NC(=O)C(c3cc(C)ccc3C)=C2O)CC1` (configuration not stated) registered a melting point of 116 to 119 °C.

On to `CCCCCCCCNC(=O)Cc1c(C)cc(C(C)(C)C)c(O)c1C`, for which the melting point fell in the range of 101 to 104 °C.

For the compound `O=C(CN1C(=O)C2(COc3cc4c(cc32)CCO4)c2c(Cl)cccc21)Nc1ccccc1F` (configuration not stated), the melting point lay in the range of 243 to 245 °C.

In turn, `CCOC(=O)CCSC(CC)=NNC(N)=O` had a melting point of 63.5 to 64.5 °C.

For the compound `CCCCC(=O)N(Cc1ccc(OC)cc1)c1cc(F)cc(-c2nnn[nH]2)c1`, the melting point was 122 to 125 °C.

On to `N#CCCCCCCNc1ccc(O)cc1`, for which the melting point is 75 to 76 °C.

The compound `Oc1cncc(Cl)c1CCCOc1cccnc1Oc1cccc(Cl)c1` displayed a melting point of 95 to 96 °C.

On to `CC(NC(=O)C(N)CC(=O)O)C(=O)NC1C(C)(C)SC1(C)C` (configuration not stated), for which the melting point turned out to be 57.2 °C.

With `CCCCCCc1cc2c(cc1C(=O)O)C(C)(C)CCC2(C)C`, the melting point fell in the range of 98 to 99 °C.

The compound `O=S(=O)(Nc1ncnc(Cl)c1Cc1ccc2ccccc2c1)c1ccc(Cl)cc1` yielded a melting point of 197 to 199 °C.

Turning to `COc1ccc(CC2=NC(C)(C)CO2)cc1NC(=O)C(C)(C)CCCOc1cc(C)ccc1C`, the melting point was 79 to 80 °C.

In turn, `CSC(=N)c1cc(Oc2ccc(C(F)(F)F)cc2Cl)ccc1[N+](=O)[O-]` had a melting point of 103 °C.

Compound `CSc1ccc(/C=C2/C(C)=C(CCO)c3cc(F)ccc32)cc1` returned a melting point of 101 to 103 °C.

Take `Clc1nc2ncsc2nc1Cl`: the melting point lay within 124 to 125 °C.

For `c1ccc(COc2ccc([C@H]3CO3)cc2)cc1`, the melting point is 56 to 61 °C.

The compound `COc1ccc2c(c1)C(=O)CC1C2CCC2(C)C(O[Si](C)(C)C(C)(C)C)CCC12` (configuration not stated) gave a melting point of 159 to 160 °C.

On to `CCCCCCCC1(CCCCCCC)c2ccccc2-c2ccc(Br)cc21`, for which the melting point came out at 32 °C.

As for `C[C@@H](n1cnc2cc(F)c(F)cc2c1=O)[C@](O)(Cn1cncn1)c1ccc(F)cc1F`, the melting point lay within 212 to 213 °C.

`Cc1ccc(N2CCN(CCC3CN(C)C(=O)O3)CC2)cc1` (configuration not stated) returned a melting point of 96 to 97 °C.

On to `CCOCc1nc2c(N)nc3ccccc3c2n1CCOCC#Cc1ccccc1`, for which the melting point lay within 111 to 112 °C.

Take `O=C(c1ccc(Cl)cc1)c1cc2ccccc2cn1`: the melting point fell in the range of 126 to 127 °C.

In turn, `Cc1nc(N2CCN(Cc3ccc(F)cc3)C2=O)sc1C(=O)N(C)C` came in with a melting point of 162 to 164 °C.

In the case of `Cc1nc2ccccc2n(-c2ccc(N(C)C)cc2)c1=O`, the melting point lay within 230 to 231 °C.

With `CC1(C)OC(=O)Nc2c(Br)cc(-c3cc(F)cc(C#N)c3)cc21`, the melting point fell in the range of 216 to 217 °C.

Compound `COCC(C)Nc1cc2c(=O)n(NS(C)(=O)=O)c(=O)[nH]c2cc1[N+](=O)[O-]` (configuration not stated) gave a melting point of 103 to 111 °C.

For the compound `NC(=Nc1ccc(N2CCNCC2)cc1)c1cccs1`, the melting point amounted to 180 °C.

Compound `Cc1cc(Cl)cc(CO[C@H]2CCCN(Cc3nc(=O)[nH][nH]3)[C@H]2c2ccccc2)c1` registered a melting point of 227 to 228 °C.

The compound `Cc1nc2cnc(Nc3ccc(N4CCNCC4)cn3)nc2n(C2CCCC2)c1=O` came in with a melting point of 221 to 223 °C.

Compound `O=C(c1cc2c(cc1Cl)OCO2)N1CCOCC1` yielded a melting point of 155 °C.

As for `CC(C)Cn1c(C(=O)OC(C)(C)C)c(O)c2cc(OCc3ccccc3)ccc2c1=O`, the melting point fell in the range of 133 to 134 °C.

Consider `Cc1cc(Oc2cc(C(F)(F)F)nn2C)nc(C(=O)O)c1`, for which the melting point was found to be 168 °C.

`Fc1ccc(-c2[nH]cc(C3CCN4CCCC4C3)c2-c2ccncc2)cc1` (configuration not stated): the melting point lay in the range of 263 to 265 °C.

As for `CCCCNC(=O)n1c(=S)[nH]c2ccccc21`, the melting point lay within 179 to 180 °C.

As to `CC(C)(C)c1ccc(S(=O)(=O)N2CCCC2=O)cc1`, the melting point is 131 to 133 °C.
